Source: patent US8691528B2, “Cell penetrating peptide” (Mitsubishi Tanabe Pharma Corporation, priority 2005, dated 2014)
Entries after “also recorded” stand apart in the source; their conditions may differ.

System: CHO cells
Test: Test of translocation of fluorescence-labeled peptides into CHO cells (FACS and confocal microscopic analysis)
Type: cell-based
Settings: for contribution of the alanine-substituted amino acid to the intracellular translocation: comprehensive alanine substitution on the basis of KSH1-1
Procedure: Each peptide solution, adjusted to 1 mM, was diluted with a medium to three levels, 100 μM, 50 μM, and 25 μM, and added to cells. Three kinds of cells were used: CHO cells, HeLa cells, and Jurkat cells. After each peptide solution was added, the cells were incubated for 1 hour. After the cells were washed with PBS three times, 100 μL of 0.25% trypsin-1 mM EDTA solution was added, and trypsinization was performed at room temperature for 5 minutes. After 400 μL of PBS (10% FCS) was added to stop the trypsinization, the cells were washed with 1 mL of HBSS three times. After the washing, the cells were suspended in 500 μL of PBS (10% FCS) and subjected to flowcytometry (hereinafter, FACS) analysis using FACS Calibur (Becton Dickinson).
Each peptide was synthesized, fluorescently labeled, purified and dissolved in the same manner as Example 1-2, a test of translocation into CHO cells was performed, and an evaluation was performed by confocal microscopic analysis and FACS. FACS analysis was performed in the same manner as Example 1-3. For the KSH1 peptide and modified PTD sequences, i.e., KSH1-1 to KSH1-9 peptides (SEQ ID NOS:1 to 9 in the sequence listing), fluorescence intensities determined by FACS analysis are shown in FIG. 6. The peptide addition concentrations were 50 μM, 25 μM, 12.5 μM and 6.5 μM.
To determine which amino acids are important to the intracellular translocation, comprehensive alanine substitution was performed on the basis of KSH1-1 to design KSH1-11 (SEQ ID NO:11 in the sequence listing) to KSH1-23 (SEQ ID NO:22 in the sequence listing) and KSH1-35 (SEQ ID NO:32 in the sequence listing) (FIG. 7). Each peptide was synthesized, fluorescently labeled, purified and dissolved in the same manner as Example 1-2, a test of translocation into CHO cells was performed, and an evaluation was performed by confocal microscopic analysis and FACS. FACS analysis was performed in the same manner as Example 1-3. For KSH1 and modified PTD sequences, i.e., KSH11-11 to 23 and KSH1-35, fluorescence intensities determined by FACS analysis are shown in FIG. 8. The peptide addition concentrations were 50 μM, 25 μM, 12.5 μM and 6.5 μM.
(§1) Each peptide was synthesized, fluorescently labeled, purified and dissolved in the same manner as Example 1-2, a test of translocation into CHO cells was performed, and an evaluation was performed by confocal microscopic analysis and FACS analysis. FACS analysis was performed in the same manner as Example 1-3. For KSH1 and modified PTD sequences, i.e., KSH11-24 to 1-26 and KSH1-28 to 1-30, fluorescence intensities determined by FACS analysis are shown in FIG. 10. The peptide addition concentrations were 50 μM, 25 μM, 12.5 μM and 6.5 μM.
as §1, with “KSH1-27, KSH1-33, KSH1-34” for “KSH11-24 to 1-26”, “KSH1-36,” for “KSH1-28 to 1-30,”, “12.” for “10.”
Each peptide was synthesized, fluorescently labeled, purified and dissolved in the same manner as Example 1-2, and an intracellular translocation test in CHO cells was performed by FACS analysis. Used for positive control were a PTD sequence derived from HIV TAT ([…] in the sequence listing) and the KSH1 peptide; used for negative control was a peptide sequence lacking intracellular transferability (SEQ ID NO:57 in the sequence listing).

[1] = 50 μM, 25 μM, 12.5 μM and 6.5 μM

## KSH1-24: two tryptophans substituted with leucine (RLLMRLYSPTTRRYG; Designed peptide to act as PTD(Protein Transduction Domain))
[1]
  intracellular translocation compared with KSH1-1 (in words): decreased

## KSH1-22: alanine substitution form of KSH1-1 (an arginine substituted) (RLWMRWYSPTTARYG; Designed peptide to act as PTD(Protein Transduction Domain))
[1]
  intracellular translocation compared with KSH1-1 (in words): decreased

## KSH1-34: 14th tyrosine in the vicinity of the 3rd tryptophan substituted with arginine (RLWMRWYSPTTRARG; Designed peptide to act as PTD(Protein Transduction Domain))
[1]
  intracellular translocation compared with KSH1-1 (in words): decreased considerably

## KSH1-11: KSH1-1 with the 1st arginine substituted with alanine (ALWMRWYSPTTRRYG; Designed peptide to act as PTD(Protein Transduction Domain))
[1]
  intracellular translocation compared with KSH1-1 (in words): did not decrease a lot
  contribution of the alanine-substituted amino acid to the intracellular translocation: minor contribution

## KSH1-30: two tryptophans substituted with tyrosine (RLYMRYYSPTTRRYG; Designed peptide to act as PTD(Protein Transduction Domain))
[1]
  intracellular translocation compared with KSH1-1 (in words): good intracellular translocation was exhibited; also recorded: good results

## KSH1-15: alanine substitution form of KSH1-1 (an arginine substituted) (RLWMAWYSPTTRRYG; Designed peptide to act as PTD(Protein Transduction Domain))
[1]
  intracellular translocation compared with KSH1-1 (in words): decreased

## KSH1-23: alanine substitution form of KSH1-1 (RLWMRWYSPTTRRAG; Designed peptide to act as PTD(Protein Transduction Domain))
  contribution of the alanine-substituted amino acid to the intracellular translocation: minor contribution

## KSH1-4: modified KSH1 with three tryptophans uniformly arranged on the wheel structure (KLWMRWWSPTTRRYG; Designed peptide to act as PTD(Protein Transduction Domain))
[1]
  intracellular translocation compared with KSH1 (in words): did not change

## KSH1-3: KSH1 with the 13th arginine substituted with alanine (KLWMRWYSPTTRAYG; Designed peptide to act as PTD(Protein Transduction Domain))
[1]
  intracellular translocation compared with KSH1 (in words): decreased remarkably; also recorded: became observable very little
Detected only at this concentration
  concentration at which intracellular translocation was detected: 50 µM

## KSH1-25: two tryptophans substituted with phenylalanine (RLFMRFYSPTTRRYG; Designed peptide to act as PTD(Protein Transduction Domain))
[1]
  intracellular translocation compared with KSH1-1 (in words): nearly the same as KSH1-1

## KSH1-19: alanine substitution form of KSH1-1 (RLWMRWYSGTTRRYG; Designed peptide to act as PTD(Protein Transduction Domain))
  contribution of the alanine-substituted amino acid to the intracellular translocation: minor contribution

## KSH1-26: two tryptophans substituted with isoleucine (RLIMRIYSPTTRRYG; Designed peptide to act as PTD(Protein Transduction Domain))
[1]
  intracellular translocation compared with KSH1-1 (in words): nearly the same as KSH1-1

## KSH1-36: the reversed-chain peptide of KSH1 (GYRRTTPSYWRMWLR; Designed peptide to act as PTD(Protein Transduction Domain))
At high concentrations
  intracellular translocation compared with KSH1 (in words): accentuated intracellular translocation
At low concentrations
  intracellular translocation compared with KSH1 (in words): tended to decrease

## KSH1-6: KSH1 with the two tryptophans both substituted with alanine (KLAMRAYSPTTRRYG; Designed peptide to act as PTD(Protein Transduction Domain))
[1]
  intracellular translocation compared with KSH1 (in words): no longer observable at all

## KSH1-2: KSH1 with proline substituted with alanine (KLWMRWYSATTRRYG; Designed peptide to act as PTD(Protein Transduction Domain))
[1]
  intracellular translocation compared with KSH1 (in words): no influence on the intracellular transferability was observed

## KSH1-29: two tryptophans substituted with valine (RLVMRVYSPTTRRYG; Designed peptide to act as PTD(Protein Transduction Domain))
[1]
  intracellular translocation compared with KSH1-1 (in words): decreased slightly

## KSH1-27: serine and threonine all substituted with alanine (RLWMRWYAPAARRYG; Designed peptide to act as PTD(Protein Transduction Domain))
[1]
  intracellular translocation compared with KSH1-1 (in words): decreased slightly
At low concentrations
  translocation compared with KSH1-1 (in words): nearly the same

## KSH1-17: KSH1-1 with the 7th tyrosine substituted with alanine (RLWMRWASPTTRRYG; Designed peptide to act as PTD(Protein Transduction Domain))
[1]
  intracellular translocation compared with KSH1-1 (in words): almost no intracellular translocation was observed

## KSH1-35: alanine substitution form of KSH1-1 (RLWMRWYSPTTRRYA; Designed peptide to act as PTD(Protein Transduction Domain))
  contribution of the alanine-substituted amino acid to the intracellular translocation: minor contribution
